Measured values from ChEMBL document CHEMBL1201862, “PubChem BioAssay data set” (2004).
Values joined by “and” are separate entries in the source; they are usually repeats but may differ in a detail not shown here. Identical values can stand only once.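 Compound exposure: 48 hours, 5 concentrations, 96-well plates. At the GI50, growth is halved.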 Active and inactive are the calls of the source. No stated cut-off is given here; in the data, active = GI50 up to about 1.1 µM and inactive = higher. Residues, ends and D or L forms follow the SMILES beside them. *: point of attachment. Boc = CC(C)(C)OC(=O)*; Bn = c1ccc(C*)cc1

Experiments:
Assay in all cases: NCI tumour cell line growth inhibition, 48 h
[1] = tested on: NCI-H522
[2] = tested on: HOP-92
[3] = tested on: UO-31
[4] = tested on: EKVX
[5] = tested on: NCI-H226
[6] = tested on: MCF7
[7] = tested on: Malme-3M
[8] = tested on: SW-620
[9] = tested on: SK-MEL-28
[10] = tested on: KM12
[11] = tested on: OVCAR-8
[12] = tested on: TK-10
[13] = tested on: ACHN
[14] = tested on: COLO 205
[15] = tested on: MDA-N
[16] = tested on: HCT-116
[17] = tested on: SK-MEL-5
[18] = tested on: 786-0
[19] = tested on: SK-MEL-2
[20] = tested on: NCI/ADR-RES
[21] = tested on: SF-268
[22] = tested on: CAKI-1
[23] = tested on: BT-549
[24] = tested on: SK-OV-3
[25] = tested on: OVCAR-4
[26] = tested on: K562
[27] = tested on: SN12C
[28] = tested on: A549
[29] = tested on: SF-295
[30] = tested on: HT-29
[31] = tested on: RPMI-8226
[32] = tested on: NCI-H23
[33] = tested on: SNB-19
[34] = tested on: UACC-62
[35] = tested on: MDA-MB-435
[36] = tested on: HCT-15
[37] = tested on: MDA-MB-231
[38] = tested on: UACC-257
[39] = tested on: U-251
[40] = tested on: HCC 2998
[41] = tested on: HL-60
[42] = tested on: Hs-578T
[43] = tested on: PC-3
[44] = tested on: IGROV-1
[45] = tested on: OVCAR-5
[46] = tested on: MOLT-4
[47] = tested on: SF-539
[48] = tested on: HOP-62
[49] = tested on: SR
[50] = tested on: NCI-H460
[51] = tested on: RXF 393
[52] = tested on: LOX IMVI
[53] = tested on: M14
[54] = tested on: DU-145

In the case of `O=C1O[C@H](c2ccc3c(c2)OCO3)[C@H]2CO[C@@H](c3ccc4c(c3)OCO4)[C@@H]12`, the GI50 [1] is reported as 94.8 µM (inactive), the GI50 [2] is reported as > 100 µM (inactive) and the GI50 [3] is reported as > 100 µM (inactive). For the same compound, the GI50 [4] was > 100 µM (inactive), the GI50 [5] was > 100 µM (inactive) and the GI50 [6] was > 100 µM (inactive). The GI50 [7] was > 100 µM (inactive), the GI50 [8] was > 100 µM (inactive) and the GI50 [9] was > 100 µM (inactive). For the same compound, the GI50 [10] was > 100 µM (inactive), the GI50 [11] was > 100 µM (inactive) and the GI50 [12] was > 100 µM (inactive). The GI50 [13] was > 100 µM (inactive), the GI50 [14] was 85.5 µM (inactive) and the GI50 [15] was > 100 µM (inactive). The GI50 [16] was > 100 µM (inactive), the GI50 [17] was 42 µM (inactive) and the GI50 [18] was > 100 µM (inactive). The GI50 [19] was > 100 µM (inactive), the GI50 [20] was 74.1 µM (inactive) and the GI50 [21] was > 100 µM (inactive). The GI50 [22] was 77.8 µM (inactive), the GI50 [23] was > 100 µM (inactive) and the GI50 [24] was > 100 µM (inactive). The GI50 [25] was 96.2 µM (inactive), the GI50 [26] was 60.1 µM (inactive) and the GI50 [27] was > 100 µM (inactive). For the same compound, the GI50 [28] was > 100 µM (inactive), the GI50 [29] was 60.1 µM (inactive) and the GI50 [30] was 77.6 µM (inactive). The GI50 [31] was 33.9 µM (inactive), the GI50 [32] was 78.7 µM (inactive) and the GI50 [33] was > 100 µM (inactive). The GI50 [34] was 88.5 µM (inactive), the GI50 [35] was > 100 µM (inactive) and the GI50 [36] was greater than 100 µM. For the same compound, the GI50 [37] was > 100 µM (inactive), the GI50 [38] was 54.6 µM (inactive) and the GI50 [39] was > 100 µM (inactive). For the same compound, the GI50 [40] was > 100 µM (inactive), the GI50 [41] was > 100 µM (inactive) and the GI50 [42] was > 100 µM (inactive). The GI50 [43] was > 100 µM (inactive), the GI50 [44] was > 100 µM (inactive) and the GI50 [45] was > 100 µM (inactive). For the same compound, the GI50 [46] was 43.5 µM (inactive), the GI50 [47] was > 100 µM (inactive) and the GI50 [48] was > 100 µM (inactive). The GI50 [49] was 42.7 µM (inactive), the GI50 [50] was > 100 µM (inactive) and the GI50 [51] was > 100 µM (inactive). For the same compound, the GI50 [52] was > 100 µM (inactive) and the GI50 [53] was > 100 µM (inactive).

With `CNC(=O)C(CC(C)C)NC(=O)C(C)NC(=O)C(Cc1ccc(OCc2ccccc2)cc1)NC(=O)C(COCc1ccccc1)NC(=O)OC(C)(C)C` (stereo unspecified) (Boc-S(Bn)Y(Bn)AL-NHMe; configuration not given here) the GI50 [1] was > 10 µM (inactive) and 13.8 µM (inactive), the GI50 [2] was 24.9 µM (inactive) and 30.5 µM (inactive) and the GI50 [3] was > 100 µM (inactive). The GI50 [6] was 10.7 µM (inactive) and 16.1 µM (inactive), the GI50 [8] was 11.5 µM (inactive) and 8.65 µM (inactive) and the GI50 [10] was 17 µM (inactive) and 18.2 µM (inactive). For the same compound, the GI50 [11] was 16.9 µM (inactive) and 17.1 µM (inactive), the GI50 [15] was 12.1 µM (inactive) and 14.8 µM (inactive) and the GI50 [16] was 6.5 µM (inactive) and 7.45 µM (inactive). The GI50 [18] was 22.8 µM (inactive) and 20.7 µM (inactive), the GI50 [20] was > 100 µM (inactive) and the GI50 [54] was 65.5 µM (inactive). The GI50 [21] was 17.5 µM (inactive) and 22.9 µM (inactive), the GI50 [22] was 32.5 µM (inactive) and > 64 µM (inactive) and the GI50 [23] was 18.5 µM (inactive) and 22 µM (inactive). The GI50 [24] was 18.5 µM (inactive) and 27.7 µM (inactive), the GI50 [25] was 17.9 µM (inactive) and 20.6 µM (inactive) and the GI50 [26] was 9.95 µM (inactive) and 12.6 µM (inactive). For the same compound, the GI50 [30] was 13.6 µM (inactive) and 13.4 µM (inactive), the GI50 [32] was 20.1 µM (inactive) and 27.2 µM (inactive) and the GI50 [33] was 30 µM (inactive) and 17.4 µM (inactive). For the same compound, the GI50 [34] was 18.5 µM (inactive) and > 10 µM (inactive), the GI50 [36] was greater than 100 µM and the GI50 [37] was 15.6 µM (inactive) and 16.6 µM (inactive). For the same compound, the GI50 [38] was > 100 µM (inactive), the GI50 [39] was 15.9 µM (inactive) and 8.57 µM (inactive) and the GI50 [42] was 25 µM (inactive) and 15.8 µM (inactive). For the same compound, the GI50 [44] was 22.3 µM (inactive) and 23.1 µM (inactive), the GI50 [46] was 6.85 µM (inactive) and 6.15 µM (inactive) and the GI50 [47] was > 42.2 µM (inactive). For the same compound, the GI50 [48] was 20.5 µM (inactive) and 22.6 µM (inactive), the GI50 [49] was 15.1 µM (inactive) and 8.55 µM (inactive) and the GI50 [52] was 16.5 µM (inactive) and 11.4 µM (inactive).
